Data taken from patent US6872719B1, “Phenylalanine enamide derivatives” (Celltech R & D Limited, priority 2002, dated 2005).

Biological target: T1, α4β1 integrin (Homo sapiens, UniProt P05556+P13612)
T1 construct: 2.5×10^5 Jurkat cells in the presence or absence of titrated test compounds; endogenous in cells; host or cells: Jurkat cells
Assay: α4β1 Integrin-Dependent Jurkat Cell Adhesion to VCAM-Ig
Assay type: cell-based
Settings: inhibition of Jurkat cell adhesion to 2d VCAM-1-hFc
Experimental: α4β1 Integrin-Dependent Jurkat Cell Adhesion to VCAM-Ig
96 well NUNC plates were coated with F(ab)2 fragment goat anti-human IgG Fcγ-specific antibody [Jackson Immuno Research 109-006-098: 100 μl at 2 μg/ml in 0.1M NaHCO3, pH 8.4], overnight at 4°. The plates were washed (3×) in phosphate-buffered saline (PBS) and then blocked for 1 h in PBS/1% BSA at room temperature on a rocking platform. After washing (3× in PBS) 35 ng/ml of purified 2d VCAM-1-hFc diluted in PBS/1% BSA was added and the plates left for 60 minutes at room temperature on a rocking platform. The plates were washed (3× in PBS) and the assay then performed at 37° for 30 min in a total volume of 200 μl containing 2.5×10^5 Jurkat cells in the presence or absence of titrated test compounds.
Each plate was washed (2×) with medium and the adherent cells were fixed with 100 μl methanol for 10 minutes followed by another wash. 100 μl 0.25% (w/v) Rose Bengal (Sigma R4507) in PBS was added for 5 minutes at room temperature and the plates washed (3×) in PBS. 100 μl 50% (v/v) ethanol in PBS was added and the plates left for 60 min after which the absorbance (570 nm) was measured.

T1 sequence (P13612 34-1032): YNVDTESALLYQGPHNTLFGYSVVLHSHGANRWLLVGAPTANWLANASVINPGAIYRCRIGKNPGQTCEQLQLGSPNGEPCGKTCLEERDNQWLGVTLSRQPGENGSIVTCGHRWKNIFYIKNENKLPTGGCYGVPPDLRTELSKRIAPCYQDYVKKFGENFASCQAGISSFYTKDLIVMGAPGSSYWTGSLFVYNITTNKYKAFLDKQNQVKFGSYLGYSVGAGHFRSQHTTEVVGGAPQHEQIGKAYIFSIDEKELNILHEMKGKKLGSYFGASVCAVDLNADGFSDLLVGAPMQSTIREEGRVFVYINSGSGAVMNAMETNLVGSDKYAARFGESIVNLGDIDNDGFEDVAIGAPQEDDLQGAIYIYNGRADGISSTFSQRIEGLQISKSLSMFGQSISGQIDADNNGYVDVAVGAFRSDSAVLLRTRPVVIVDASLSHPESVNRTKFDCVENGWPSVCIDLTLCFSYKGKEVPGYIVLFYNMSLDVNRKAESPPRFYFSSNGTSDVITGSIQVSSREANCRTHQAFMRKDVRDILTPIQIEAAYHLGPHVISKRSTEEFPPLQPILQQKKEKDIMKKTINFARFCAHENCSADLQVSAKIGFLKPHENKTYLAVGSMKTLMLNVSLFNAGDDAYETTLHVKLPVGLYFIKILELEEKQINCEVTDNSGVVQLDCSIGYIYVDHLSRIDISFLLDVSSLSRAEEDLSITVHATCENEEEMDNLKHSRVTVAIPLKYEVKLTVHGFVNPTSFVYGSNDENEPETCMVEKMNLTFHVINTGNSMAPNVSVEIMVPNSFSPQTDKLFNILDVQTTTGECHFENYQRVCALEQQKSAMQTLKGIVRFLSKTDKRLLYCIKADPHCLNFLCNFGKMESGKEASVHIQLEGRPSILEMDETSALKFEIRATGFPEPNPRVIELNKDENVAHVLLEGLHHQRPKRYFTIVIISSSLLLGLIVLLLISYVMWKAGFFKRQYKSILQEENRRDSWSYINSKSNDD
T1 sequence (P05556 21-798): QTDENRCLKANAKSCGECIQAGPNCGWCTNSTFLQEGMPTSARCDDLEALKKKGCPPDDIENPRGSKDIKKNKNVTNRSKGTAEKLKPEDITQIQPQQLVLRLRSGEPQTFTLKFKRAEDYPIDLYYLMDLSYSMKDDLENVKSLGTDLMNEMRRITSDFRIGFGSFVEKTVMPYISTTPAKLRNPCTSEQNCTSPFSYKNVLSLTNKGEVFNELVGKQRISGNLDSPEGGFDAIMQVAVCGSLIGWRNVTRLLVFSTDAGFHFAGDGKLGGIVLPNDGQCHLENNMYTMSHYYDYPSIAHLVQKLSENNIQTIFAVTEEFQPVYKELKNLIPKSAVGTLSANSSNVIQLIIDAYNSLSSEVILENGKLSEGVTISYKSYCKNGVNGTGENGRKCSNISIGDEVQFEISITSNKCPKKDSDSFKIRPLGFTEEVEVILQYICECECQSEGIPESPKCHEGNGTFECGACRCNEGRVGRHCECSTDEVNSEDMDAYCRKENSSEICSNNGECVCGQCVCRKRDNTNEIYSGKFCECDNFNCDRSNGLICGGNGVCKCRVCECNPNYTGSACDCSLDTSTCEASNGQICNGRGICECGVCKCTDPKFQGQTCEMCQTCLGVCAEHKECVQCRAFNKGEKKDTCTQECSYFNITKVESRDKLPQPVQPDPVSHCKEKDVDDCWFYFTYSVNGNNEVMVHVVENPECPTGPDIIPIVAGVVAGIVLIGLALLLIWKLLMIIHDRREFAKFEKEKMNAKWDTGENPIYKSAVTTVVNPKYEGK

IC50: 4 nM
SMILES: O=C(Nc1ccc(C[C@H](NC2=C(Br)C(=O)C23CCCCC3)C(=O)OCCO)cc1)c1c(Cl)cncc1Cl [Example 1, 2-Hydroxyethyl (2S)-2-(2-bromo-3-oxo-spiro[3,5]non-1-en-1-ylamino)-3-{4-[(3,5-dichlorolsonicotinoyl)amino]phenyl}propanoate]
